{"source": "patent US6051572A", "about": "“Azetidine, pyrrolidine and piperidine derivatives” (Merck Sharp & Dohme Ltd., priority 1995, dated 2000)", "origin": "cited, not measured here", "conditions": "therapeutic doses"}
{"smiles": "CNS(=O)(=O)Cc1ccc2[nH]cc(CCN(C)C)c2c1", "note": "[sumatriptan]", "values": [{"measurement": "adverse events in humans", "result": "certain adverse cardiovascular events"}]}
